Source: patent US20140065226A1, “THERMO-RESPONSIVE HYDROGEL COMPOSITIONS” (priority 2011, published 2014)
Several values for one entry are separate records, joined by “and”; a condition that tells them apart may be missing. Equal values may be shown once. Where a name gives a salt, the structure may show the parent alone. Read-outs that look alike come from different tables or passages of the source.

Assays:
[1] = for release from pure thermo-responsive hydrogels: previous tests
Description: Drug release was carried out in PBS at 37° C. […] Drug release samples were taken at predetermined time intervals and tested for anti-proliferative activity with fibroblast MTS assay as described previously. Briefly, 3T3 fibroblast cells were seeded in 96-well plates as 5000 cells/well. After cells were grown to semiconfluence, growth was arrested by washing plates with PBS and then adding low serum medium with DMEM, 0.5% (v/v) FBS and 1% (v/v) penicillin/streptomycin mixture. Growth arrest was maintained for 24 hours. The cell cycle synchronized cells were then re-stimulated to enter G1 phase by changing back to growth medium. […] PBS was added to growth medium as control group.
To quantify the size distribution of nanospheres, the suspension was sampled and serially filtered through 0.45 μm, 0.22 μm, and 0.1 μm filters. The drug concentration after each filtration was quantified and calculated within each nanosphere size distribution. Nanospheres with size >100 nm in diameter were harvested by ultrafiltration and centrifugation. The harvested nanospheres were washed twice with DI water to remove excess PVA. The resultant nanosphere suspension was immersed in fresh PBS at 37° C. to initiate release. […] The release samples were taken continuously for 1 day. All samples were quantified for 3H concentration using a scintillation counter. Each experiment was conducted in triplicate.
The samples were taken continuously for the first 24 hours. The drug concentration was measured spectrophotometrically at 240 nm.

[2] = oil: methylene chloride + methanol

| release from free nanospheres ([1]; PBS, 37° C.) | release from nanospheres loaded hydrogels ([1]; PBS, 37° C.) | release from pure thermo-responsive hydrogels ([1]; after the first two hours) | drug release from PLGA nanospheres ([1]; within 24 hours, 37° C., PBS, disodium salt) | release from pure thermo-responsive hydrogels ([1]; within the first two hours) [%] | P (oil/water) ([2]; water: 0.2% PVA) | P (oil/water) ([2]; water: 2% PVA) | P (oil/water) ([2]; water: 2% PVA + 0.25N (NH4)2SO4) | P (oil/water) ([2]; water: 2% PVA + 0.5N NaCl) | Compound |
| --- | --- | --- | --- | --- | --- | --- | --- | --- | --- |
| sustained release over 24 hours | sustained release over 24 hours | less than 10% | > 90% and ~90% | ~90 | 0.06 | 0.15 | 0.86 | 0.26 | C[C@@H]1C[C@H]2[C@@H]3CCC4=CC(=O)C=C[C@]4(C)[C@@]3(F)[C@@H](O)C[C@]2(C)[C@@]1(O)C(=O)COP(=O)(O)O [Dexamethasone sodium phosphate, Dexamethasone 21-phosphate disodium salt] |
|  |  |  |  |  | 2.93 |  |  |  | [3H]C1=C([3H])[C@@]2(C)C(=C([3H])C1=O)CC[C@H]1[C@@H]3C[C@@H](C)[C@](O)(C(=O)CO)[C@@]3(C)C[C@H](O)[C@@]12F [[1,2,4-^3H]dexamethasone, [1,2,4-^3H]dexamethasone] |
